Test results from ChEMBL document CHEMBL4020795, “One-pot microwave assisted stereoselective synthesis of novel dihydro-2'H-spiro[indene-2,1'-pyrrolo-[3,4-c]pyrrole]-tetraones and evaluation of their antimycobacterial activity and inhibition of AChE” (Bioorg Med Chem Lett, 2017).
Values after ≈ are worked out from the molar mass of the structure shown.

Legend:
Acetylcholinesterase = Acetylcholinesterase (Homo sapiens, UniProt P22303); test: Inhibition of AChE (unknown origin) using […] as substrate preincubated for 15 mins followed by substrate addition measured every minute by spectrophotometric analysis
[1] = tested on: Mycobacterium tuberculosis; test: Antimicrobial activity against Mycobacterium tuberculosis H37Rv by Alamar blue assay; type: functional
Vero = test: Cytotoxicity against monkey Vero cells assessed as decrease in cell viability after 72 hrs by MTT assay; type: cell-based; details: Chlorocebus sabaeus
[2] = tested on: Mycobacterium tuberculosis; test: Potency index, ratio of pyrimethamine IC50 to test compound IC50 for Mycobacterium tuberculosis H37Rv; type: functional
[3] = tested on: Mycobacterium tuberculosis; test: Potency index, ratio of cycloserine IC50 to test compound IC50 for Mycobacterium tuberculosis H37Rv; type: functional

Sequence of Acetylcholinesterase (P22303 whole entry): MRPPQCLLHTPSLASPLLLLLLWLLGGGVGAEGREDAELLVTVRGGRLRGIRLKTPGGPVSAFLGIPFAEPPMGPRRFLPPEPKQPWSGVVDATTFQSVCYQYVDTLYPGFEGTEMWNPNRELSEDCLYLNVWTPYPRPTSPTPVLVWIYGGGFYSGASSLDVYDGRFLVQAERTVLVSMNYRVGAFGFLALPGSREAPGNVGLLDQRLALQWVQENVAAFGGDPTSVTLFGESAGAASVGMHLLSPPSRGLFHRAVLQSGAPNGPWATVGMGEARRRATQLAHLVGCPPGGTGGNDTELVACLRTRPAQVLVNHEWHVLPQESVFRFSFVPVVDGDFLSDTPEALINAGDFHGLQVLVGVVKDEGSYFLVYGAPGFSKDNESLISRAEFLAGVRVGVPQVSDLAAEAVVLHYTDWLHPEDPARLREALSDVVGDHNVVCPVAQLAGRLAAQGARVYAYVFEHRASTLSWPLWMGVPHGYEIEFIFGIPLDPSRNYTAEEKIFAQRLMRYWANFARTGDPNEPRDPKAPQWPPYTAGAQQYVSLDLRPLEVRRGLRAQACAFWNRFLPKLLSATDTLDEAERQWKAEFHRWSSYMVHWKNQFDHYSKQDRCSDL

| Structure (SMILES) | IC50 (Acetylcholinesterase) [µM] | IC50 [1] [µM] | IC90 [1] [µM] | MIC [1] [µM] | IC50 (Vero) [µg/mL] | Ratio IC50 [2] | Ratio IC50 [3] |
| --- | --- | --- | --- | --- | --- | --- | --- |
| CN1CC2C(=O)N(Cc3ccccc3)C(=O)C2C12C(=O)c1ccccc1C2=O (stereo not given) | 41.2 | 55 | 96.4 | 100 (≈ 37.4 µg/mL) | > 6.25 | – | – |
| COc1ccccc1N1C(=O)C2CN(C)C3(C(=O)c4ccccc4C3=O)C2C1=O (stereo not given) | 11.1 | 28.3 | 46.5 | 50 (≈ 19.5 µg/mL) | > 6.25 | – | – |
| CCc1ccc(N2C(=O)C3CN(C)C4(C(=O)c5ccccc5C4=O)C3C2=O)cc1 (stereo not given) | 44.6 | 21.9 | 47.9 | 50 (≈ 19.4 µg/mL) | > 6.25 | – | – |
| CN1CC2C(=O)N(c3ccc(F)cc3)C(=O)C2C12C(=O)c1ccccc1C2=O (stereo not given) | 50.1 | 2.17 | 7.86 | 50 (≈ 18.9 µg/mL) | > 6.25 | – | – |
| COc1ccc(N2C(=O)C3CN(C)C4(C(=O)c5ccccc5C4=O)C3C2=O)cc1 (stereo not given) | 0.78 | 17.2 | 35.5 | 50 (≈ 19.5 µg/mL) | > 6.25 | – | – |
| CN1CC2C(=O)N(c3ccccc3)C(=O)C2C12C(=O)c1ccccc1C2=O (stereo not given) | 69.8 | 13.2 | 25.9 | 50 (≈ 18 µg/mL) | > 6.25 | – | – |
| CN1CC2C(=O)N(c3cccc(F)c3)C(=O)C2C12C(=O)c1ccccc1C2=O (stereo not given) | 80.1 | 28.6 | 47.7 | 50 (≈ 18.9 µg/mL) | > 6.25 | – | – |
| CN1C(=O)C2CN(C)C3(C(=O)c4ccccc4C3=O)C2C1=O (stereo not given) | 2.1 | 22.9 | 34.6 | 50 (≈ 14.9 µg/mL) | > 6.25 | – | – |
| CN1CC2C(=O)N(C3CCCCC3)C(=O)C2C12C(=O)c1ccccc1C2=O (stereo not given) | 4.12 | 15.9 | 34.6 | 100 (≈ 36.6 µg/mL) | > 6.25 | – | – |
| Cc1ccc(N2C(=O)C3CN(C)C4(C(=O)c5ccccc5C4=O)C3C2=O)cc1 (stereo not given) | 7.34 | 40 | 71.9 | 100 (≈ 37.4 µg/mL) | > 6.25 | – | – |
| CC(C)c1ccc(N2C(=O)C3CN(C)C4(C(=O)c5ccccc5C4=O)C3C2=O)cc1 (stereo not given) | 12.2 | 28.5 | 52.4 | 100 (≈ 40.2 µg/mL) | > 6.25 | – | – |
| CN1CC2C(=O)N(c3ccc(Br)cc3)C(=O)C2C12C(=O)c1ccccc1C2=O (stereo not given) | 73.3 | 11.1 | 22 | 50 (≈ 22 µg/mL) | > 6.25 | – | – |
| CN1CC2C(=O)N(c3ccc(Cl)cc3)C(=O)C2C12C(=O)c1ccccc1C2=O (stereo not given) | 27.9 | 1.3 | 5.3 | 25 (≈ 9.87 µg/mL) | > 6.25 | 37 | 12 |
| CN1CC2C(=O)N(c3ccc([N+](=O)[O-])cc3)C(=O)C2C12C(=O)c1ccccc1C2=O (stereo not given) | 6.6 | 47.2 | 66.5 | 100 (≈ 40.5 µg/mL) | > 6.25 | – | – |
| NCC[C@H](O)C(=O)N[C@@H]1C[C@H](N)[C@@H](O[C@H]2O[C@H](CN)[C@@H](O)[C@H](O)[C@H]2O)[C@H](O)[C@H]1O[C@H]1O[C@H](CO)[C@@H](O)[C@H](N)[C@H]1O [AMIKACIN] | – | – | 0.08 | 0.16 (≈ 0.0937 µg/mL) | > 6.25 | – | – |
| N[C@@H]1CONC1=O [CYCLOSERINE] | – | – | – | 25 (≈ 2.55 µg/mL) | > 6.25 | – | – |
| CC[C@@H](CO)NCCN[C@@H](CC)CO [ETHAMBUTOL] | – | < 1.56 | – | 12.5 (≈ 2.55 µg/mL) | > 6.25 | – | – |
| NNC(=O)c1ccncc1 [ISONIAZID] | – | – | 0.29 | 0.31 (≈ 0.0425 µg/mL) | > 6.25 | – | – |
| CCc1nc(N)nc(N)c1-c1ccc(Cl)cc1 [PYRIMETHAMINE] | – | – | – | 100 (≈ 24.9 µg/mL) | > 6.25 | – | – |
